Experimental data as given in the supplement of paper PMC4862054.
Values joined by “and” are separate entries in the source; they are usually repeats but may differ in a detail not shown here. Equal values may be shown once.

Key:
Conditions in all cases: incubation time: 72 h
[1] = system: CAL-148; assay: normalised viability (% of control), CellTiter-Blue; higher = more viable cells (about 100 = DMSO control)
Method: (§1)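 DSRT, CellTiter-Blue viability, 72 h incubation. Signal is normalised to DMSO and benzethonium chloride controls. Value is the normalised response at dose 6.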

[2] = system: CAL-85-1; assay: as above
Method: as §1

[3] = system: MDA-MB-453; assay: as above
Method: as §1

[4] = system: CAL-51; assay: as above
Method: as §1

[5] = system: HDQ-P1; assay: as above
Method: as §1

[6] = system: DU-4475; assay: as above
Method: as §1

[7] = system: CAL-148; assay: as above; remark: listed apart in the source
Method: (§2)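 DSRT, CellTiter-Blue viability, 72 h incubation. Signal is normalised to DMSO and benzethonium chloride controls. Value is the normalised response at dose 9.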

[8] = system: CAL-85-1; assay: as above; remark: listed apart in the source
Method: as §2

[9] = system: MDA-MB-453; assay: as above; remark: listed apart in the source
Method: as §2

[10] = system: CAL-51; assay: as above; remark: listed apart in the source
Method: as §2

[11] = system: HDQ-P1; assay: as above; remark: listed apart in the source
Method: as §2

[12] = system: DU-4475; assay: as above; remark: listed apart in the source
Method: as §2

[13] = system: CAL-148; assay: as above; remark: listed apart in the source
Method: (§3)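 DSRT, CellTiter-Blue viability, 72 h incubation. Signal is normalised to DMSO and benzethonium chloride controls. Value is the normalised response at dose 8.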

[14] = system: CAL-85-1; assay: as above; remark: listed apart in the source
Method: as §3

[15] = system: MDA-MB-453; assay: as above; remark: listed apart in the source
Method: as §3

[16] = system: CAL-51; assay: as above; remark: listed apart in the source
Method: as §3

[17] = system: HDQ-P1; assay: as above; remark: listed apart in the source
Method: as §3

[18] = system: MDA-MB-436; assay: normalised response (% of control), CellTiter-Glo; higher = more viable cells (100 = DMSO, 0 = benzethonium chloride kill control)
How it was run: (§4)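 For each plate, 0.1 % DMSO was set to 100 and a positive kill control to 0. Breast cancer cell lines (20 µl suspension) were seeded into 384-well plates already holding compound at 5 concentrations in 10-fold steps over a 10,000-fold range chosen per compound, and incubated for 72 h. CellTox Green fluorescence at 485/520 nm was read before CellTiter-Glo luminescence, which followed 10 min at room temperature. Each value is the normalised signal at one concentration.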

[19] = system: HCC1599; assay: as above
How it was run: as §4

[20] = system: SK-BR-3; assay: as above
How it was run: as §4

[21] = system: HCC1937; assay: as above
How it was run: as §4

[22] = system: MDA-MB-231; assay: as above
How it was run: as §4

[23] = system: Hs578T; assay: as above
How it was run: as §4

[24] = system: BT-474; assay: as above
How it was run: as §4

[25] = system: MCF-10A; assay: as above
How it was run: as §4

[26] = system: MFM-223; assay: as above
How it was run: as §4

[27] = system: CAL-148; assay: as above
How it was run: as §4

[28] = system: CAL-85-1; assay: as above
How it was run: as §4

[29] = system: MDA-MB-453; assay: as above
How it was run: as §4

[30] = system: MDA-MB-468; assay: as above
How it was run: as §4

[31] = system: BT-549; assay: as above
How it was run: as §4

[32] = system: CAL-51; assay: as above
How it was run: as §4

[33] = system: HDQ-P1; assay: as above
How it was run: as §4

[34] = system: CAL-120; assay: as above
How it was run: as §4

[35] = system: DU-4475; assay: as above
How it was run: as §4

[36] = system: HCC1143; assay: as above
How it was run: as §4

[37] = system: MDA-MB-436; assay: normalised viability (% of control), CellTiter-Blue; higher = more viable cells (100 = DMSO, 0 = benzethonium chloride kill control)
Method: (§5)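 DSRT, CellTiter-Blue viability, 72 h incubation. Signal is normalised to DMSO and benzethonium chloride controls. Value is the normalised response at dose 1.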

[38] = system: HCC1599; assay: as above
Method: as §5

[39] = system: SK-BR-3; assay: as above
Method: as §5

[40] = system: HCC1937; assay: as above
Method: as §5

[41] = system: MDA-MB-231; assay: as above
Method: as §5

[42] = system: Hs578T; assay: as above
Method: as §5

[43] = system: MFM-223; assay: as above
Method: as §5

[44] = system: CAL-148; assay: as above
Method: as §5

[45] = system: CAL-85-1; assay: as above
Method: as §5

[46] = system: MDA-MB-453; assay: as above
Method: as §5

[47] = system: MDA-MB-468; assay: as above
Method: as §5

[48] = system: BT-549; assay: as above
Method: as §5

[49] = system: CAL-51; assay: as above
Method: as §5

[50] = system: HDQ-P1; assay: as above
Method: as §5

[51] = system: CAL-120; assay: as above
Method: as §5

[52] = system: DU-4475; assay: as above
Method: as §5

[53] = system: HCC1143; assay: as above
Method: as §5

With CC(=O)[C@]1(O)Cc2c(O)c3c(c(O)c2[C@@H](O[C@H]2C[C@H](N)[C@H](O)[C@H](C)O2)C1)C(=O)c1ccccc1C3=O [Idarubicin] (30 nM) the normalised viability [1] was 40.7%, the normalised viability [2] was 89.9% and the normalised viability [3] was 101%. For the same molecule, the normalised viability [4] was 31.1%, the normalised viability [5] was 83.6% and the normalised viability [6] was 50%.

Work on CN(Cc1cnc2nc(N)nc(N)c2n1)c1ccc(C(=O)N[C@@H](CCC(=O)O)C(=O)O)cc1 [Methotrexate] (10000 nM) yielded a normalised viability [7] of 69.1%, a normalised viability [8] of 65.3% and a normalised viability [9] of 90%. For the same molecule, the normalised viability [10] was 39.2%, the normalised viability [11] was 99.7% and the normalised viability [12] was 102%.

For O=C(CCCCCCC(=O)Nc1ccccc1)NO [Vorinostat] (3000 nM), the normalised viability [13] was 49.7% and 59.7%, the normalised viability [14] was 59.5% and 66.1% and the normalised viability [15] was 12.2% and 9.84%. For the same molecule, the normalised viability [16] was 101% and 94.8% and the normalised viability [17] was 68.1% and 62.5%.

In the case of COc1c2occc2cc2ccc(=O)oc12 [Methoxsalen] (10000 nM), the normalised viability [7] is reported as 53.6%, the normalised viability [8] is reported as 61% and the normalised viability [9] is reported as 28.5%. It also gave a normalised viability [10] of 49.2%, a normalised viability [11] of 128% and a normalised viability [12] of 71.6%.

COc1c2occc2cc2ccc(=O)oc12 [Methoxsalen] (300 nM) gave a normalised viability [1] of 114%, a normalised viability [2] of 107% and a normalised viability [3] of 99.9%. It also gave a normalised viability [4] of 104%, a normalised viability [5] of 88.7% and a normalised viability [6] of 111%.

CO[C@@H]1[C@H](N(C)C(=O)c2ccccc2)C[C@H]2O[C@]1(C)n1c3ccccc3c3c4c(c5c6ccccc6n2c5c31)C(=O)NC4 [Midostaurin] (300 nM) was tested, and the normalised viability [1] was 106%, the normalised viability [2] was 86.6% and the normalised viability [3] was 65.5%. For the same molecule, the normalised viability [4] was 28.9%, the normalised viability [5] was 53.6% and the normalised viability [6] was 76%.

CC(O)(CS(=O)(=O)c1ccc(F)cc1)C(=O)Nc1ccc(C#N)c(C(F)(F)F)c1 (configuration not stated) [Bicalutamide] (300 nM) was tested, and the normalised viability [1] was 107%, the normalised viability [2] was 95% and the normalised viability [3] was 110%. The normalised viability [4] was 108%, the normalised viability [5] was 55% and the normalised viability [6] was 93.6%.

CC[C@H](CO)Nc1nc(NCc2ccccc2)c2ncn(C(C)C)c2n1 [Roscovitine] (10000 nM) gave a normalised viability [7] of 80.8%, a normalised viability [8] of 61.9% and a normalised viability [9] of 63.4%. For the same molecule, the normalised viability [10] was 85%, the normalised viability [11] was 75.6% and the normalised viability [12] was 96.6%.

Cc1cn(-c2cc(NC(=O)c3ccc(C)c(Nc4nccc(-c5cccnc5)n4)c3)cc(C(F)(F)F)c2)cn1 [Nilotinib] (300 nM) was tested, and the normalised viability [1] was 94.6% and 101%, the normalised viability [2] was 92.1% and 86% and the normalised viability [3] was 94.5% and 91.4%. For the same molecule, the normalised viability [4] was 109% and 112%, the normalised viability [5] was 47.2% and 70.8% and the normalised viability [6] was 90.1% and 113%.

CC[C@H](CO)Nc1nc(NCc2ccccc2)c2ncn(C(C)C)c2n1 [Roscovitine] (300 nM) gave a normalised viability [1] of 88.6%, a normalised viability [2] of 93.7% and a normalised viability [3] of 86.9%. The normalised viability [4] was 104%, the normalised viability [5] was 59.7% and the normalised viability [6] was 97.5%.

Molecule CCN(CC)CCCC(C)Nc1ccnc2cc(Cl)ccc12 (configuration not stated) [Chloroquine] (990 nM) has a normalised viability [7] of 84.8%, a normalised viability [8] of 91.3% and a normalised viability [9] of 98.4%. The normalised viability [10] was 89.5%, the normalised viability [11] was 126% and the normalised viability [12] was 115%.

With C=CCN(/C=C1/C(=O)O[C@H](COC)[C@@]2(C)C1=C(O)C(=O)C1=C2[C@H](OC(C)=O)C[C@]2(C)C(=O)CC[C@@H]12)CC=C [PX-866] (10000 nM) the normalised viability [7] was 112%, the normalised viability [8] was 88.9% and the normalised viability [9] was 70.2%. For the same molecule, the normalised viability [10] was 97.8%, the normalised viability [11] was 53.2% and the normalised viability [12] was 88%.

In the case of O=C(CCCCCCC(=O)Nc1ccccc1)NO [Vorinostat] (1 nM), the normalised response [18] is reported as 98.3%, the normalised response [19] is reported as 94.1% and the normalised response [20] is reported as 88%. For the same molecule, the normalised response [21] was 99%, the normalised response [22] was 94.8% and the normalised response [23] was 97.5%. The normalised response [24] was 93.1%, the normalised response [25] was 92.1% and the normalised response [26] was 102%. It also gave a normalised response [27] of 102%, a normalised response [28] of 104% and a normalised response [29] of 97.9%. It also gave a normalised response [30] of 96%, a normalised response [31] of 108% and a normalised response [32] of 80.8%. For the same molecule, the normalised response [33] was 104%, the normalised response [34] was 95.9% and the normalised response [35] was 98.4%. For the same molecule, the normalised response [36] was 91.1%, the normalised viability [37] was 101% and 100% and the normalised viability [38] was 97.8% and 94.4%. The normalised viability [39] was 89.7% and 91.5%, the normalised viability [40] was 102% and 89.7% and the normalised viability [41] was 89.6% and 94.1%. The normalised viability [42] was 108% and 97.3%, the normalised viability [43] was 90% and 100% and the normalised viability [44] was 89.8% and 101%. The normalised viability [45] was 91.5% and 104%, the normalised viability [46] was 106% and the normalised viability [47] was 109%. The normalised viability [48] was 94.4% and 117%, the normalised viability [49] was 103% and 96% and the normalised viability [50] was 84.8% and 99.5%. The normalised viability [51] was 83.4% and 95.8%, the normalised viability [52] was 100% and 106% and the normalised viability [53] was 94.7% and 100%.
